Results as given in patent publication US9771353B2, “Kinase inhibitors based upon N-alkyl pyrazoles” (RESPIVERT LIMITED, priority 2013, dated 2017).

Key:
GSK3α = GSK3α (Homo sapiens (Human), UniProt P49840); experiment: GSK 3α enzyme inhibition (FRET, Z-LYTE), Method 2; format: biochemical
Protocol: (§1) The enzyme inhibitory activities of compounds disclosed herein are determined by FRET using synthetic peptides labelled with both donor and acceptor fluorophores (Z-LYTE, Invitrogen Ltd., Paisley, UK).
The inhibitory activities of compounds of the invention against the GSK 3α enzyme isoform (Invitrogen), are evaluated by determining the level of activation/phosphorylation of the target peptide. The GSK3-α protein (500 ng/mL, 2.5 μL) is mixed with the test compound (2.5 μL at either 4 μg/mL, 0.4 μg/mL, 0.04 μg/mL, or 0.004 μg/mL) for 2 hr at RT. The FRET peptide (8 μM, 2.5 μL), which is a phosphorylation target for GSK3α, and ATP (40 μM, 2.5 μL) are then added to the enzyme/compound mixture and the resulting mixture incubated for 1 hr. Development reagent (protease, 5 μL) is added for 1 hr prior to detection in a fluorescence microplate reader (Varioskan® Flash, ThermoFisher Scientific).
(§2) In all cases, the site-specific protease cleaves non-phosphorylated peptide only and eliminates the FRET signal. Phosphorylation levels of each reaction are calculated using the ratio of coumarin emission (donor) over fluorescein emission (acceptor), for which high ratios indicate high phosphorylation and low ratios indicate low phosphorylation levels.
This method follows the same steps as Method 1 above, but utilises a shorter period of mixing of the test compound (105 minutes instead of 2 hours) with the GSK3-α protein.

PBMCs [1] = experiment: LPS-induced TNFα/IL-8 release in PBMC cells, assay (b); format: cell-based; conditions: Homo sapiens, LPS-stimulated PBMCs, read-out: IC50 Values for Inhibition of Cytokine Release, PBMCs IL-8
Protocol: Peripheral blood mononuclear cells (PBMCs) from healthy subjects are separated from whole blood using a density gradient (Lymphoprep, Axis-Shield Healthcare). The PBMCs are seeded in 96 well plates and treated with compounds at the desired concentration for 2 hours before addition of 1 ng/mL LPS (Escherichia Coli 0111:B4 from Sigma Aldrich) for 24 hours under normal tissue culture conditions (37° C., 5% CO2). The supernatant is harvested for determination of IL-8 and TNFα concentrations by sandwich ELISA (Duo-set, R&D systems) and read on the fluorescence microplate reader (Varioskan® Flash, ThermoFisher Scientific).

p38 MAPKα = p38 MAPKα (Homo sapiens (Human), UniProt Q16539); experiment: p38 MAPKα enzyme inhibition (FRET, Z-LYTE), Method 2; format: biochemical
p38 MAPKα, sequence (Q16539 whole entry): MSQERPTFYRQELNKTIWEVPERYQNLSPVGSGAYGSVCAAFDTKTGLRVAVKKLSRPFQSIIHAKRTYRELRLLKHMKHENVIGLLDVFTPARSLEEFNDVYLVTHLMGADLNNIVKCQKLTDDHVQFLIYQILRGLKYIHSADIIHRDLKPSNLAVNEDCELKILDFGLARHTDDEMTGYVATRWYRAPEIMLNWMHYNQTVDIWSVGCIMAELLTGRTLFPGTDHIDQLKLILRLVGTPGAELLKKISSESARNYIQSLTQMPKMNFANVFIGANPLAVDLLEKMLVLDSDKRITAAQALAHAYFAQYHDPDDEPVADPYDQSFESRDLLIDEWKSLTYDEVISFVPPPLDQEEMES

c-Src = c-Src (Homo sapiens (Human), UniProt P12931); experiment: c-Src enzyme inhibition (FRET, Z-LYTE); format: biochemical
c-Src, sequence (P12931 whole entry, looked up): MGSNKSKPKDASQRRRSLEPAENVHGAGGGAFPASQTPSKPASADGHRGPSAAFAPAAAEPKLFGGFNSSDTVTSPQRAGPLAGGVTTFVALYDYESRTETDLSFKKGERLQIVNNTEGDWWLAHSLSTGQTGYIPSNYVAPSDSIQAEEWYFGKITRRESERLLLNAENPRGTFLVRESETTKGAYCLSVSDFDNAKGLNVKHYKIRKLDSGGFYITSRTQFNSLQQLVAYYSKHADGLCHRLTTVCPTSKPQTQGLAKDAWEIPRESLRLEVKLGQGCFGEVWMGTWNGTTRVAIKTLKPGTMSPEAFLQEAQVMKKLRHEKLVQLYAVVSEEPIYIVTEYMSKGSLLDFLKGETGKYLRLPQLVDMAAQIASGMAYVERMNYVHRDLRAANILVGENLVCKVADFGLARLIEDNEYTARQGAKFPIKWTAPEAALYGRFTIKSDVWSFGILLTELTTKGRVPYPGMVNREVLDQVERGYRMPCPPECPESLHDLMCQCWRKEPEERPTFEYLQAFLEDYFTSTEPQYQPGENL
Protocol: as §1
(§3) The relevant enzyme (3000 ng/mL or 2000 ng/mL respectively, 2.5 μL) is incubated with the test compound (either 4 μg/mL, 0.4 μg/mL, 0.04 μg/mL, or 0.004 μg/mL, 2.5 μL each) for 2 hr at RT. The FRET peptides (8 μM, 2.5 μL), and appropriate ATP solutions (2.5 μL, 800 μM for c-Src, and 60 μM ATP for Syk) are then added to the enzymes/compound mixtures and incubated for 1 hr. Development reagent (protease, 5 μL) is added for 1 hr prior to detection in a fluorescence microplate reader (Varioskan® Flash, ThermoFisher Scientific).
as §2

Syk = Syk (Homo sapiens (Human), UniProt P43405); experiment: Syk enzyme inhibition (FRET, Z-LYTE); format: biochemical
Protocol: as §1
as §3, with “The inhibitory activities of compounds of the invention against c-Src and Syk enzymes (Invitrogen), are evaluated in a similar fashion to that described hereinabove. The relevant” for “The relevant”
as §2

PBMCs [2] = experiment: IL-2 and IFN gamma release in CD3/CD28 stimulated PBMC cells, assay (c); format: cell-based; conditions: Homo sapiens
Protocol: PBMCs from healthy subjects are separated from whole blood using a density gradient (Lymphoprep, Axis-Shield Healthcare). Cells are added to a 96 well plate pre-coated with a mixture of CD3/CD28 monoclonal antibodies (0.3 μg/mL eBioscience and 3 μg/mL BD Pharmingen respectively). Compound at the desired concentration is then added to the wells and the plate left for 3 days under normal tissue culture conditions. Supernatants are harvested and IL-2 and IFN gamma release determined by Sandwich ELISA (Duo-set, R&D System). The IC50 is determined from the dose response curve.

d-U937 cells = experiment: Accumulation of β catenin in d-U937 cells, assay (m); format: cell-based, human
Protocol: U937 cells, a human monocytic cell line, are differentiated into macrophage-type cells by incubation with PMA; (100 ng/mL) for between 48 to 72 hr. The cells are then incubated with either final concentrations of test compound or vehicle for 18 hr. The induction of β-catenin by the test compounds is stopped by replacing the media with 4% formaldehyde solution. Endogenous peroxide activity is neutralised by incubating with quenching buffer (100 μL, 0.1% sodium azide, 1% H2O2 in PBS with 0.05% Tween-20) for 20 min. The cells are washed with washing buffer (200 μL; PBS containing 0.05% Tween-20) and incubated with blocking solution (200 μL; 5% milk in PBS) for 1 hr, re-washed with washing buffer (200 μL) and then incubated overnight with anti-β-catenin antibody solution (50 μL) in 1% BSA/PBS (BD, Oxford, UK).
After washing with washing buffer (3×200 μL; PBS containing 0.05% Tween-20), cells are incubated with an HRP-conjugated secondary antibody solution (100 μL) in 1% BSA/PBS (Dako, Cambridge, UK) and the resultant signal is determined colourimetrically (OD: 450 nm with a reference wavelength of 655 nm) using TMB substrate (50 μL; R&D Systems, Abingdon, UK). This reaction is stopped by addition of 1N H2SO4 solution (50 μL). Cells are then washed with washing buffer and 2% crystal violet solution (50 μL) is applied for 30 min. After washing with washing buffer (3×200 μL), 1% SDS (100 μL) is added to each well and the plates are shaken lightly for 1 hr prior to measuring the absorbance at 595 nm (Varioskan® Flash, Thermo-Fisher Scientific).
The measured OD450-655 readings are corrected for cell number by dividing the OD450-655 by the OD595 readings. The percentage induction for each well is calculated relative to vehicle, and the ratio of induction normalised in comparison with the induction produced by a standard control comprising of N-(4-(4-(3-(3-tert-butyl-1-p-tolyl-1H-pyrazol-5-yl)ureido)naphthalen-1-yloxy)pyridin-2-yl)-2-methoxyacetamide (1 μg/mL) which is defined as 100%.

[3] = IFNγ, read-out: IC50 Values for Inhibition of Cytokine Release, PBMCs IFNγ
[4] = 1 μg/mL test compound, normalised to reference N-(4-(4-(3-(3-tert-butyl-1-p-tolyl-1H-pyrazol-5-yl)ureido)naphthalen-1-yloxy)pyridin-2-yl)-2-methoxyacetamide
[5] = 5 μg/mL test compound, normalised to the same reference compound
[6] = 10 μg/mL test compound, normalised to the same reference compound

GSK3α, sequence (P49840 whole entry): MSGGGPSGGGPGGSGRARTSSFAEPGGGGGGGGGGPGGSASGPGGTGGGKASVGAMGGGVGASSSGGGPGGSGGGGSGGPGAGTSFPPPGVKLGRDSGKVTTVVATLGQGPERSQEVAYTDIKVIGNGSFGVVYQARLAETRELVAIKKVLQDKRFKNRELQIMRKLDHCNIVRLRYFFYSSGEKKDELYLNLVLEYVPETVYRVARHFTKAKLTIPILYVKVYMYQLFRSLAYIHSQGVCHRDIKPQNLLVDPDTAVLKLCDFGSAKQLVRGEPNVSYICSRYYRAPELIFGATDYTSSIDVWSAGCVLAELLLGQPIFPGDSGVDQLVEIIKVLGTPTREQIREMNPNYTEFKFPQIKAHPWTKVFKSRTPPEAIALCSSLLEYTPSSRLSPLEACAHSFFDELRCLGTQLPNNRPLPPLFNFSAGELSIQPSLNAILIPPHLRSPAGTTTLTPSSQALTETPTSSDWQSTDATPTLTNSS

C#Cc1cc(Nc2nccc(Oc3ccc(NC(=O)Nc4cc(C(C)(C)C)nn4C)c4ccccc34)n2)cc(C(=O)NCCOCCOC)c1 [Example 4, 3-((4-((4-(3-(3-(tert-Butyl)-1-methyl-1H-pyrazol-5-yl)ureido)naphthalen-1-yl)oxy)pyrimidin-2-yl)amino)-5-ethynyl-N-(2-(2-methoxyethoxy)ethyl)]
IC50 (GSK3α): 1010 nM
IC50 (PBMCs [1]): 4.7 nM

COCCOCCOCCOCCOCCOCCOCCOc1cc(Nc2nccc(Oc3ccc(NC(=O)Nc4cc(C(C)(C)C)nn4C)c4ccccc34)n2)cc(OC)c1 [Example 6, 1-(4-((2-((3-(2,5,8,11,14,17,20-Heptaoxadocosan-22-yloxy)-5-methoxyphenyl)amino)-pyrimidin-4-yl)oxy)naphthalen-1-yl)-3-(3-(tert-butyl)-1-methyl-1H-pyrazol-5-yl)urea]
IC50 (GSK3α): 1230 nM
IC50 (PBMCs [1]): 10.7 nM

C#Cc1cc(Nc2nccc(Oc3ccc(NC(=O)Nc4cc(C(C)(C)C)nn4C(C)C)c4ccccc34)n2)cc(C(=O)NCCOCCOCCOC)c1 [13(a), 3-((4-((4-(3-(3-(tert-Butyl)-1-isopropyl-1H-pyrazol-5-yl)ureido)naphthalen-1-yl)oxy)pyrimidin-2-yl)amino)-5-ethynyl-N-(2-(2-(2-methoxyethoxy)ethoxy)ethyl)-benzamide]
IC50 (GSK3α): 8610 nM
IC50 (PBMCs [1]): 5.4 nM

C#Cc1cc(Nc2nccc(Oc3ccc(NC(=O)Nc4cc(C(C)(C)C)nn4-c4ccc(C)cc4)c4ccccc34)n2)cc(C(=O)NCCN2CCOCC2)c1 [Reference Compound A, 3-((4-((4-(3-(3-(tert-Butyl)-1-(p-tolyl)-1H-pyrazol-5-yl)ureido)naphthalen-1-yl)oxy)-pyrimidin-2-yl)amino)-5-ethynyl-N-(2-morpholinoethyl)benzamide, reference compound]
IC50 (p38 MAPKα): 54 nM

C#Cc1cc(Nc2nccc(Oc3ccc(NC(=O)Nc4cc(C(C)(C)C)nn4C)c4ccccc34)n2)cc(C(=O)NCCOCCOCCOC)c1 [Example 7, 3-((4-((4-(3-(3-(tert-Butyl)-1-methyl-1H-pyrazol-5-yl)ureido)naphthalen-1-yl)oxy)pyrimidin-2-yl)amino)-5-ethynyl-N-(2-(2-(2-methoxyethoxy)ethoxy)ethyl)benzamide]
IC50 (p38 MAPKα): 11 nM
IC50 (c-Src): 5 nM
IC50 (Syk): > 1000 nM
IC50 (GSK3α): 1850 nM
IC50 (PBMCs [1]): 2.2 nM
IC50 (PBMCs [2]; [3]): 11.8 nM
% β-catenin induction (d-U937 cells; [4]): 1.5%
% β-catenin induction (d-U937 cells; [5]): 6%
% β-catenin induction (d-U937 cells; [6]): 9.5%

COCCOCCOCCOc1cc(Nc2cc(Oc3ccc(NC(=O)Nc4cc(C(C)(C)C)nn4C)c4ccccc34)ccn2)cc(OC)c1 [Example 5, 1-(3-(tert-Butyl)-1-methyl-1H-pyrazol-5-yl)-3-(4-((2-((3-methoxy-5-(2-(2-(2-methoxy-ethoxy)ethoxy)ethoxy)phenyl)amino)pyridin-4-yl)oxy)naphthalen-1-yl)]
IC50 (p38 MAPKα): 160 nM
IC50 (c-Src): 10 nM
IC50 (Syk): > 1000 nM
IC50 (GSK3α): 7490 nM
IC50 (PBMCs [1]): 2.8 nM
IC50 (PBMCs [2]; [3]): 13.3 nM
IC50 (PBMCs [2]; IL-2, read-out: IC50 Values for Inhibition of Cytokine Release, PBMCs IL-2): 33.8 nM
% β-catenin induction (d-U937 cells; [4]): −5.5%
% β-catenin induction (d-U937 cells; [5]): −7%
% β-catenin induction (d-U937 cells; [6]): −2%

C#Cc1cc(Nc2nccc(Oc3ccc(NC(=O)Nc4cc(C(C)(C)C)nn4C(C)(C)C)c4ccccc34)n2)cc(C(=O)NCCOCCOCCOC)c1 [Example 12, 3-((4-((4-(3-(1,3-Di-tert-butyl-1H-pyrazol-5-yl)ureido)naphthalen-1-yl)oxy)pyrimidin-2-yl)amino)-5-ethynyl-N-(2-(2-(2-methoxyethoxy)ethoxy)ethyl)benzamide]
IC50 (GSK3α): 13100 nM
IC50 (PBMCs [1]): 546 nM

COc1cc(Nc2nccc(Oc3ccc(NC(=O)Nc4cc(C(C)(C)C)nn4C)c4ccccc34)n2)cc(S(=O)(=O)C2CC2)c1 [Example 3, 1-(3-(tert-Butyl)-1-methyl-1H-pyrazol-5-yl)-3-(4-((2-((3-(cyclopropylsulfonyl)-5-methoxy-phenyl)amino)pyrimidin-4-yl)oxy)naphthalen-1-yl)urea]
IC50 (p38 MAPKα): 36 nM
IC50 (GSK3α): 1940 nM
IC50 (PBMCs [1]): 7.2 nM
IC50 (PBMCs [2]; [3]): 22 nM
% β-catenin induction (d-U937 cells; [4]): −1%
% β-catenin induction (d-U937 cells; [5]): 25%
% β-catenin induction (d-U937 cells; [6]): 27%

C#Cc1cc(Nc2nccc(Oc3ccc(NC(=O)Nc4cc(C(C)(C)C)nn4CCC)c4ccccc34)n2)cc(C(=O)NCCOCCOCCOC)c1 [13(b), 3-((4-((4-(3-(3-(tert-Butyl)-1-propyl-1H-pyrazol-5-yl)ureido)naphthalen-1-yl)oxy)-pyrimidin-2-yl)amino)-5-ethynyl-N-(2-(2-(2-methoxyethoxy)ethoxy)ethyl)benzamide]
IC50 (GSK3α): 13100 nM
IC50 (PBMCs [1]): 9.3 nM

COCCOCCOCCOc1cc(Nc2nccc(Oc3ccc(NC(=O)Nc4cc(C(C)(C)C)nn4-c4ccc(C)cc4)c4ccccc34)n2)cc(OC)c1 [Reference Compound B, 1-(3-(tert-Butyl)-1-(p-tolyl)-1H-pyrazol-5-yl)-3-(4-((2-((3-methoxy-5-(2-(2-(2-methoxy-ethoxy)ethoxy)ethoxy)phenyl)amino)pyrimidin-4-yl)oxy)naphthalen-1-yl)urea, reference compound]
IC50 (p38 MAPKα): 139 nM
